# Measurements published in patent US9248162B2, “Factor H for treatment of rheumatoid arthritis” (Baxter International Inc., priority 2013, dated 2016).
# Test system: C3H kidneys grafted into pre-sensitized recipients
# Assay: Pre-sensitized mouse kidney allograft model, CFH with or without FK506, creatinine (Example 1)
# Assay type: in vivo, C57BL/6 (B6) mice
# Excerpt: Male C3H (H-2k) and C57BL/6 (B6, H-2b) mice (25-30 g) were used to determine the efficacy of Complement Factor H (CFH) during transplant rejection. C3H mice served as skin graft and kidney donors for pre-sensitization and kidney transplantation. Male C57BL/c (B6) mice were used as recipients. The B6 recipients were pre-sensitized by transplantation of the donor skin grafts, and were subsequently transplanted with kidney allografts between 15 and 20 days after the skin transplantation. B6 mice were treated with vehicle (controls), CFH (day −1, day 0, then every other day to day 10; 8 mg/mouse, i.p.), FK506 (daily from day −1 to day 10; 1 mg/kg s.c.) or the combination of CFH+FK506 using the same dosage regime as the single treatments. Mice were monitored daily for signs of rejection. Renal function was monitored by measuring serum creatinine levels.
substance,measurement,setting,value
Factor H,plasma Cr levels,"POD7, CFH 8 mg/mouse i.p., controls 1.9±0.1",1.4 ± 0.2 mg/dL
same,renal allograft function,"result in words, creatinine on POD7 (FIG. 2)",improving renal allograft function
